In the supplement of paper PMC13380429:

Columns and labels:
Conditions in all cases: 72 h
Calu-3 [1] = assay: drug sensitivity score (DSS) for viability; higher = more toxic; extreme values may be limits of the assay
HepG2 [2] = assay: as above
Vero E6 [3] = assay: as above
U2OS [4] = assay: as above
HepG2 [5] = assay: relative viability EC50 (midpoint between 100% and the lowest measured viability); higher = less toxic
Vero E6 [6] = assay: as above
U2OS [7] = assay: as above
Caco-2 [8] = assay: as above
Caco-2 [9] = assay: drug sensitivity score (DSS) for viability; higher = more toxic; extreme values may be limits of the assay
HepG2 [10] = assay: cell viability relative to DMSO; higher = less toxic
Vero E6 [11] = assay: as above
U2OS [12] = assay: as above
Caco-2 [13] = assay: as above
Calu-3 [14] = assay: as above

| SMILES | drug sensitivity score (Calu-3 [1]) | drug sensitivity score (HepG2 [2]) | drug sensitivity score (Vero E6 [3]) | drug sensitivity score (U2OS [4]) | relative viability EC50 (HepG2 [5]) [µM] | relative viability EC50 (Vero E6 [6]) [µM] | relative viability EC50 (U2OS [7]) [µM] | relative viability EC50 (Caco-2 [8]) [µM] | drug sensitivity score (Caco-2 [9]) | cell viability (HepG2 [10]; 1 nM) [%] | cell viability (HepG2 [10]; 10 nM) [%] | cell viability (HepG2 [10]; 100 nM) [%] | cell viability (HepG2 [10]; 1000 nM) [%] | cell viability (HepG2 [10]; 10000 nM) [%] | cell viability (Vero E6 [11]; 1 nM) [%] | cell viability (Vero E6 [11]; 10 nM) [%] | cell viability (Vero E6 [11]; 100 nM) [%] | cell viability (Vero E6 [11]; 1000 nM) [%] | cell viability (Vero E6 [11]; 10000 nM) [%] | cell viability (U2OS [12]; 1 nM) [%] | cell viability (U2OS [12]; 10 nM) [%] | cell viability (U2OS [12]; 100 nM) [%] | cell viability (U2OS [12]; 1000 nM) [%] | cell viability (U2OS [12]; 10000 nM) [%] | cell viability (Caco-2 [13]; 1 nM) [%] | cell viability (Caco-2 [13]; 10 nM) [%] | cell viability (Caco-2 [13]; 100 nM) [%] | cell viability (Caco-2 [13]; 1000 nM) [%] | cell viability (Caco-2 [13]; 10000 nM) [%] | cell viability (Calu-3 [14]; 1 nM) [%] | cell viability (Calu-3 [14]; 10 nM) [%] | cell viability (Calu-3 [14]; 100 nM) [%] | cell viability (Calu-3 [14]; 1000 nM) [%] | cell viability (Calu-3 [14]; 10000 nM) [%] |
| --- | --- | --- | --- | --- | --- | --- | --- | --- | --- | --- | --- | --- | --- | --- | --- | --- | --- | --- | --- | --- | --- | --- | --- | --- | --- | --- | --- | --- | --- | --- | --- | --- | --- | --- |
| Cn1ncnc1COc1nn2c(-c3cc(F)ccc3F)nnc2cc1C(C)(C)C | 0 | 0 | 0 | 0 | – | – | – | – | – | – | – | – | – | – | – | – | – | – | – | – | – | – | – | – | – | – | – | – | – | – | – | – | – | – |
| N#C[C@@H]1CCCN1C(=O)CNC12CC3CC(CC(O)(C3)C1)C2 [vildagliptin] | 0 | 0 | 0 | – | – | – | – | – | – | – | – | – | – | – | – | – | – | – | – | – | – | – | – | – | – | – | – | – | – | – | – | – | – | – |
| C[C@]12CCC(=O)C=C1CC[C@@H]1[C@@H]2[C@@H](O)C[C@@]2(C)[C@H]1CC[C@]2(O)C(=O)CO [hydrocortisone] | 0 | 2.9 | 0 | 0 | – | – | – | – | – | – | – | – | – | – | – | – | – | – | – | – | – | – | – | – | – | – | – | – | – | – | – | – | – | – |
| CC(=C\c1ccc(Cl)cc1)/C(C)=N/O [AP-18] | – | 0 | 0 | 0 | > 10 | > 10 | > 10 | > 10 | 0 | 103 | 95.3 | 89.6 | 101 | 107 | 104 | 106 | 102 | 105 | 99.3 | 100 | 106 | 97.6 | 103 | 100 | 99.5 | 104 | 90.4 | 98.1 | 95.7 | – | – | – | – | – |
| CCOC(=O)c1cc2ccc(O)cc2oc1=O [YZ9] | – | 0 | 0 | 0 | > 10 | > 10 | > 10 | > 10 | 0 | 98.6 | 103 | 107 | 96.5 | 117 | 92 | 95.5 | 96.3 | 101 | 102 | 99.3 | 94.7 | 92.9 | 103 | 104 | 98.6 | 94.3 | 102 | 98.8 | 99.5 | – | – | – | – | – |
| O=C(NCC(=O)N1CC[C@H](N[C@H]2CC[C@@](O)(c3ccc(-c4ncccn4)cn3)CC2)C1)c1cccc(C(F)(F)F)c1 | – | 0 | 0 | 0 | > 10 | > 10 | > 10 | > 10 | 0 | 103 | 97.6 | 105 | 97.4 | 100 | 107 | 102 | 101 | 99.4 | 98.7 | 97.8 | 105 | 97.7 | 101 | 96.4 | 104 | 108 | 92.7 | 92.7 | 96.8 | – | – | – | – | – |
| C[C@H](Nc1ncnc2[nH]cnc12)c1nc2ccc(F)cc2c(=O)n1-c1ccccc1 [acalisib] | 2.7 | 0.9 | 1.5 | 0 | > 10 | > 10 | > 10 | – | 0.9 | 106 | 107 | 109 | 93.7 | 83.6 | 104 | 101 | 95.8 | 89.9 | 76.2 | 109 | 104 | 106 | 99.4 | 94.3 | 105 | 104 | 91.6 | 102 | 74.9 | 107 | 103 | 104 | 93.8 | 65.1 |
| CCS(=O)(=O)N1CC(CC#N)(n2cc(-c3ncnc4[nH]ccc34)cn2)C1 [baricitinib] | – | 0 | 0 | 0 | > 10 | > 10 | > 10 | > 10 | 0 | 98.6 | 106 | 91.1 | 107 | 90.3 | 98.6 | 100 | 102 | 102 | 101 | 95.4 | 98.5 | 95.1 | 94.4 | 96.4 | 95.6 | 102 | 92.9 | 97 | 99.7 | – | – | – | – | – |
| CN(C)C(=S)SC(=S)N(C)C [tetramethylthiuram-monosulfide] | 8.4 | 11.3 | 8.1 | 5.7 | – | – | – | – | – | – | – | – | – | – | – | – | – | – | – | – | – | – | – | – | – | – | – | – | – | – | – | – | – | – |
| O=C(O)CCCCC(=O)O [adipic-acid] | – | 0 | 0 | 0 | > 10 | > 10 | > 10 | > 10 | 0 | 104 | 108 | 94.4 | 97.4 | 105 | 94.9 | 99.9 | 89.3 | 93.1 | 102 | 102 | 96.7 | 99.6 | 103 | 104 | 89 | 87 | 95.1 | 96.6 | 105 | – | – | – | – | – |
| Cc1cc(=O)n(-c2ccccc2)n1C [phenazone] | 0 | 0.8 | 0 | 0 | – | – | – | – | – | – | – | – | – | – | – | – | – | – | – | – | – | – | – | – | – | – | – | – | – | – | – | – | – | – |
| CNC(=O)c1ccc(C)c(-n2c(C)cc(OCc3ccc(F)cc3F)c(Br)c2=O)c1 | 5.2 | 1.5 | 5 | 3.1 | – | – | > 10 | > 10 | 3.1 | 111 | 104 | 106 | 99.7 | 67.7 | 98.7 | 92 | 85.5 | 82.3 | 58.8 | 101 | 99.2 | 90.2 | 81.9 | 78.7 | 90.9 | 95.3 | 93 | 79.6 | 75.4 | 94.7 | 92.6 | 74 | 93.6 | 56.8 |
| Cc1ccc(/C=N/NC(=O)c2ccccc2Oc2ccccc2)o1 | – | 0 | 0 | 0 | > 10 | > 10 | > 10 | > 10 | 0.1 | 103 | 103 | 91.7 | 94.2 | 102 | 97 | 101 | 98.9 | 95.6 | 93.7 | 106 | 97.3 | 98.1 | 93 | 98.6 | 96 | 99.6 | 100 | 95.2 | 88.7 | – | – | – | – | – |
| CC(=O)N[C@H](Cc1ccc2ccccc2c1)C(=O)N[C@H](Cc1ccc(Cl)cc1)C(=O)N[C@H](Cc1cccnc1)C(=O)N[C@@H](CO)C(=O)N[C@@H](Cc1ccc(O)cc1)C(=O)N[C@H](CCCNC(N)=O)C(=O)N[C@@H](CC(C)C)C(=O)N[C@@H](CCCNC(=N)N)C(=O)N1CCC[C@H]1C(=O)N[C@H](C)C(N)=O [cetrorelix] | – | 0.6 | 0 | 0 | > 10 | > 10 | > 10 | > 10 | 0 | 102 | 93.7 | 101 | 97.8 | 83.1 | 105 | 101 | 105 | 99.3 | 90.3 | 102 | 93.6 | 96.9 | 95.1 | 100 | 117 | 95.5 | 110 | 114 | 104 | – | – | – | – | – |
| CC1(C)CCC(C)(C)c2cc(Cn3cccn3)c(/C=C/c3ccc(C(=O)O)cc3)cc21 [palovarotene] | – | 0 | 0 | 0 | > 10 | > 10 | > 10 | > 10 | 0 | 95.4 | 99.7 | 103 | 113 | 99.4 | 100 | 104 | 100 | 106 | 98.3 | 105 | 99.6 | 102 | 94 | 94.8 | 107 | 93.7 | 94.8 | 96 | 92.9 | – | – | – | – | – |
| Nc1cc(N2CCCCC2)nc(N)[n+]1[O-] [minoxidil] | 0 | 0 | 0 | 0 | – | – | – | – | – | – | – | – | – | – | – | – | – | – | – | – | – | – | – | – | – | – | – | – | – | – | – | – | – | – |
| C[C@H](Nc1ncnc2nc[nH]c12)c1cc2cccc(Cl)c2c(=O)n1-c1ccccc1 [duvelisib] | 3.8 | 3 | 1.4 | 1.7 | – | > 10 | > 10 | – | 4.1 | 91.8 | 96.5 | 97.9 | 89.5 | 65.9 | 105 | 101 | 94.9 | 91.8 | 76.3 | 99.4 | 92.2 | 96.1 | 88.6 | 75.5 | 99.8 | 95.4 | 91.7 | 84.1 | 52.5 | 98.6 | 102 | 101 | 88.9 | 58.6 |
